Literature values, collected in article PMC7984154 (Chemmedchem, 2020).

What was measured:
[1] = steady state, oral dose of 5 mg
FAP = conditions: cancer indications, also in combination with other chemotherapies

Row | Compound | clinical maximum plasma concentration [1] [nM] | maximal plasma concentrations (single dose 600 mg) [µM] | highest tolerable dose (single rising dose studies) [mg] | efficacy in the clinical setting (FAP)
1 | CC#CCn1c(N2CCC[C@@H](N)C2)nc2c1c(=O)n(Cc1nc(C)c3ccccc3n1)c(=O)n2C [linagliptin] | 12 | ~4 | 600 | 
2 | CC(C)[C@H](N)C(=O)N1CCC[C@H]1B(O)O [PT100, talabostat] |  |  |  | minimal efficacy
